Tested on: IRF pathway in THP1-Dual™ cells, THP-1 (HAQ)
Assay: Reporter gene expression assay in THP-1 cells (THP1-Dual, IRF pathway Lucia luciferase reporter, 2′,3′-cGAMP stimulation)
Format: cell-based, human
Conditions: Homo sapiens; THP1-Dual cells preincubated with compound 10 minutes, stimulation with 5 μM 2′,3′-cGAMP for 20 hr, QUANTI-Luc readout of the supernatant; read-out: THP-1 (HAQ) Activity (IC50 value range)
How it was run: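 THP-1-derived THP1-Dual cells (5×10^4) preincubated with compound for 10 minutes, then stimulated with 5 μM 2′,3′-cGAMP. After 20 hr, secreted Lucia luciferase (IRF pathway reporter) measured in supernatant by luminescence.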

SMILES	IC50
O=C(Nc1ccc2c(c1)N(Cc1cc(F)cc(F)c1)CCS2)Nc1c[nH]c2ccccc12 [Example 92, 1-(4-(3,5-difluorobenzyl)-3,4-dihydro-2H-benzo[b][1,4]thiazin-6-yl)-3-(1H-indol-3-yl)urea]	< 1 µM
O=C(Nc1ccc2c(c1)N(Cc1cc(F)cc(F)c1)CCS2)Nc1c[nH]c2ccc(F)cc12 [Example 93, 1-(4-(3,5-difluorobenzyl)-3,4-dihydro-2H-benzo[b][1,4]thiazin-6-yl)-3-(5-fluoro-1H-indol-3-yl)urea]	< 1 µM
CC1CN(Cc2cc(F)cc(F)c2)c2cc(NC(=O)Nc3c[nH]c4ccccc34)ccc2S1 (stereo not drawn) [Example 94, 1-(4-(3,5-difluorobenzyl)-2-methyl-3,4-dihydro-2H-benzo[b][1,4]thiazin-6-yl)-3-(1H-indol-3-yl)urea]	< 1 µM
NC(=O)c1ccccc1CN1CCSc2cc(NC(=O)Nc3c[nH]c4ccccc34)ccc21 [Example 95, 2-((7-(3-(1H-indol-3-yl)ureido)-2,3-dihydro-4H-benzo[b][1,4]thiazin-4-yl)methyl)benzamide]	< 1 µM
Cc1cc(CN2CCSc3cc(NC(=O)Nc4c[nH]c5ccccc45)ccc32)no1 [Example 96, 1-(1H-indol-3-yl)-3-(4-((5-methylisoxazol-3-yl)methyl)-3,4-dihydro-2H-benzo[b][1,4]thiazin-7-yl)urea]	< 1 µM
CC1CN(Cc2ccccc2)c2cc(NC(=O)Nc3c[nH]c4ccc(F)cc34)ccc2S1 (stereo not drawn) [Example 97, 1-(4-benzyl-2-methyl-3,4-dihydro-2H-benzo[b][1,4]thiazin-6-yl)-3-(5-fluoro-1H-indol-3-yl)urea]	< 1 µM
O=C(Nc1ccc2c(c1)N(Cc1ccccc1)CCS2)Nc1c[nH]c2cc(F)ccc12 [Example 98, 1-(4-benzyl-3,4-dihydro-2H-benzo[b][1,4]thiazin-6-yl)-3-(6-fluoro-1H-indol-3-yl)urea]	< 1 µM
O=C(Nc1ccc2c(c1)N(Cc1ccccc1)CCS2)Nc1c[nH]c2ccc(F)cc12 [Example 99, 1-(4-benzyl-3,4-dihydro-2H-benzo[b][1,4]thiazin-6-yl)-3-(5-fluoro-1H-indol-3-yl)urea]	< 1 µM
O=C(Nc1ccc2c(c1)N(Cc1ccccc1)CCS2)Nc1c[nH]c2ncc(F)cc12 [Example 100, 1-(4-benzyl-3,4-dihydro-2H-benzo[b][1,4]thiazin-6-yl)-3-(5-fluoro-1H-pyrrolo[2,3-b]pyridin-3-yl)urea]	< 1 µM
O=C(Nc1ccc2c(c1)N(Cc1cc(F)cc(Cl)c1)CCS2)Nc1c[nH]c2ccc(F)cc12 [Example 101, 1-(4-(3-chloro-5-fluorobenzyl)-3,4-dihydro-2H-benzo[b][1,4]thiazin-6-yl)-3-(5-fluoro-1H-indol-3-yl)urea]	< 1 µM
Cc1nc(N2CCSc3ccc(NC(=O)Nc4c[nH]c5ccccc45)cc32)ccc1F [Example 102, 1-(4-(5-Fluoro-6-methylpyridin-2-yl)-3,4-dihydro-2H-benzo[b][1,4]thiazin-6-yl)-3-(1H-indol-3-yl)urea]	< 1 µM
O=C(Nc1ccc2c(c1)N(c1ccccc1)CCS2)Nc1c[nH]c2ccccc12 [Example 103, 1-(1H-indol-3-yl)-3-(4-phenyl-3,4-dihydro-2H-benzo[b][1,4]thiazin-6-yl)urea]	< 1 µM
O=C(Nc1ccc2c(c1)SCCN2c1ccccc1)Nc1c[nH]c2ccccc12 [Example 104, 1-(1H-indol-3-yl)-3-(4-phenyl-3,4-dihydro-2H-benzo[b][1,4]thiazin-7-yl)urea]	< 1 µM
O=C(Nc1ccc2c(c1)N(c1ccccn1)CCS2)Nc1c[nH]c2ccccc12 [Example 105, 1-(1H-indol-3-yl)-3-(4-(pyridin-2-yl)-3,4-dihydro-2H-benzo[b][1,4]thiazin-6-yl)urea]	< 1 µM

The remaining lines, values ahead:

IC50	SMILES
< 1 µM	O=C(Nc1ccc2c(c1)N(c1cccc(F)n1)CCS2)Nc1c[nH]c2ccccc12 [Example 106, 1-(4-(6-fluoropyridin-2-yl)-3,4-dihydro-2H-benzo[b][1,4]thiazin-6-yl)-3-(1H-indol-3-yl)urea]
< 1 µM	C[C@H]1c2ccc(NC(=O)Nc3c[nH]c4ccccc34)cc2N(Cc2ccccc2)C(=O)N1C [Example 107, (S)-1-(1-Benzyl-3,4-dimethyl-2-oxo-1,2,3,4-tetrahydroquinazolin-7-yl)-3-(1H-indol-3-yl)urea]
1 to 10 µM	C[C@H]1c2ccc(NC(=O)Nc3c[nH]c4ccccc34)cc2N(Cc2c(F)ccc(O)c2Cl)C(=O)N1C [Example 108, (S)-1-(1-(2-chloro-6-fluoro-3-hydroxybenzyl)-3,4-dimethyl-2-oxo-1,2,3,4-tetrahydroquinazolin-7-yl)-3-(1H-indol-3-yl)urea]
< 1 µM	N#Cc1ccc2[nH]cc(NC(=O)Nc3ccc4c(c3)N(Cc3ccccc3)CCS4)c2c1 [Example 109, 1-(4-benzyl-3,4-dihydro-2H-benzo[b][1,4]thiazin-6-yl)-3-(5-cyano-1H-indol-3-yl)urea]
< 1 µM	Cc1cc(CN2CCSc3ccc(NC(=O)Nc4c[nH]c5ccc(F)cc45)cc32)on1 [Example 110, 1-(5-fluoro-1H-indol-3-yl)-3-(4-((3-methylisoxazol-5-yl)methyl)-3,4-dihydro-2H-benzo[b][1,4]thiazin-6-yl)urea]
< 1 µM	CC1CN(Cc2cc(F)cc(Cl)c2)c2cc(NC(=O)Nc3c[nH]c4ccc(F)cc34)ccc2S1 (stereo not drawn) [Example 111, 1-(4-(3-chloro-5-fluorobenzyl)-2-methyl-3,4-dihydro-2H-benzo[b][1,4]thiazin-6-yl)-3-(5-fluoro-1H-indol-3-yl)urea]
< 1 µM	O=C(Nc1ccc2c(c1)N(Cc1ccccc1)C(=O)CS2)Nc1c[nH]c2ccc(Br)cc12 [Example 112, 1-(4-benzyl-3-oxo-3,4-dihydro-2H-benzo[b][1,4]thiazin-6-yl)-3-(5-bromo-1H-indol-3-yl)urea]

— US20260159511A1, “SMALL MOLECULE STING ANTAGONISTS” (CURADEV PHARMA PVT. LTD., priority 2021, published 2026)
